This note sets out measurements from patent publication US20230172919A1, “AN INSULIN SENSITIZER FOR USE IN THE PREVENTION AND/OR TREATMENT OF THE DAMAGES CAUSED BY RETINAL DETACHMENT” (SORBONNE UNIVERSITE, priority 2020, published 2023).

The test system of experiment [1] is PNA+CAR+ cones of C57BL/6J retinal explants. In words: Retinal explants culture, cone quantification. The format is cell-based, mouse (C57BL/6J). The conditions noted are these: 5-day retinal explants. Here is the method: C57BL/6J retina were prepared and placed on polycarbonate filters floating on Dulbecco’s modified Eagle’s medium (DMEM, Thermo Fisher Scientific) with the photoreceptors facing down. For the experiment, retinal explants were cultured in high glucose (25 mM) DMEM alone or supplemented with human insulin (Umuline NPH), human insulin and insulin receptor inhibitor (Hydroxy-2-naphthalenylmethylphosphonic acid (HNMPA), Abcam) or vehicle (DMSO) at 37° C. […] For this reason, HNMPA was used at a concentration 10-fold higher than the IC50 (1 mM). Each culture medium was renewed every 36 hours and after 5 days, the retinal explants were carefully removed. Immunohistochemistry and cones quantification were then performed as described for retina below.
Eyes were enucleated, fixed in 4% paraformaldehyde for 1 hour at room temperature and sectioned at the limbus; the cornea and lens were discarded. […] The retinas were flat mounted and viewed with a fluorescence microscope (DM5500, Leica). […] Each cell population was manually counted in a masked fashion. IBA-1+ cells were quantified on flat mounts on the outer segment side of the detached retina while PNA+ cone arrestin+ cells were counted on confocal microscopy Z-stacks using ImageJ software.

Experiment [2] has as its system RD-induced cone loss and subretinal IBA-1+ MPs in C57BL/6J mice. In words: Mouse model of RD (retinal detachment), retinal flat mount quantification. The conditions noted are these: for number of PNA+CAR+ cones (cone survival) / numbers of subretinal IBA1+ MPs: day 7 after RD, subretinal injection in diluted sodium hyaluronate (insulin 2 IU/ml, IGF-1 200 ng/ml, metformin 50 mg/ml), compared to PBS controls. In kind it is in vivo, mouse (C57BL/6J). Here is the method: Wild-type (C57BL/6J) mice were purchased from Janvier Labs at the age of 8 weeks. Mice were housed in the animal facility under specific pathogen-free condition, in a 12 h/12 h light/dark (100-500 lux) cycle with water and normal diet food available ad libitum. All experimental protocols and procedures were approved by the local animal care ethics committee (N°APAFIS#5201-20160427103344).
RD was induced with a previously described method (Nakazawa et al., 2006, 2007a, 2011). Briefly, mice were anesthetized with an intraperitoneal injection of xylazine hydrochloride (10 mg/kg) and ketamine hydrochloride (100 mg/kg) and pupils were dilated with topical phenylephrine (5%) and tropicamide (0.5%). A 30-gauge needle was first used to create two sclerotomies 1.5 mm posterior to the limbus. A glass needle (with a […] manually beveled tip) connected to a Hamilton syringe filled with diluted sodium hyaluronate (Healon GV®, Alcon) was then introduced into the vitreous cavity through one of the sclerotomy. The tip of the needle was finally inserted into the subretinal space through a peripheral retinotomy and 4 µl of diluted sodium hyaluronate containing or not recombinant human TSP-1 (100 µg/ml, Biotechne), human insulin (2 IU/ml, Umuline NPH), recombinant IGF-1 (200 ng/ml, Biotechne) or metformin (50 mg/ml), was gently injected, detaching approximately two-third of the retina from the underlying RPE.
For treatment with rosiglitazone, mice received intraperitoneal injections of 10 mg/kg rosiglitazone or vehicle (5% DMSO) 3 days before and 4 to 7 days after RD induction.
Eyes with subretinal hemorrhage were excluded from analysis. Mice were sacrificed from 1 to 10 days following RD, according to the experiment.
Eyes were enucleated, fixed in 4% paraformaldehyde for 1 hour at room temperature and sectioned at the limbus; the cornea and lens were discarded. The retinas were peeled from the RPE/choroid/sclera and incubated overnight at 4° C. in PBS-1% triton with the following primary antibodies: peanut agglutinin Alexa fluor® 594 (Thermo Fisher Scientific; 1/100), rabbit polyclonal anti-human cone arrestin antibody (LUMIF-hCAR; 1:10000) and goat polyclonal anti-IBA1 (1/100). After few washes, the retinas were incubated for 2 hours at room temperature with appropriate Alexa Fluor® conjugated secondary antibodies (Thermo Fisher Scientific; 1:500) in PBS-1% triton and nuclei were counterstained with Hoechst (1:1000, Sigma Aldrich). The retinas were flat mounted and viewed with a fluorescence microscope (DM5500, Leica). Images centered on the area with the lowest number of PNA+ cone arrestin+ cells were captured with a confocal laser-scanning microscope (FV1000, Olympus) using a 40X lens. Each cell population was manually counted in a masked fashion. IBA-1+ cells were quantified on flat mounts on the outer segment side of the detached retina while PNA+ cone arrestin+ cells were counted on confocal microscopy Z-stacks using ImageJ software.

Consider insulin: human insulin (Umuline NPH), for which, in experiment [1] (high glucose (25 mM) DMEM, human insulin 5 mIU/ml, compared to the control condition), the “cone survival (PNA+CAR+ cones)” value is recorded as “significantly increased”. In experiment [2], the “number of PNA+CAR+ cones (cone survival)” value is recorded as “very significantly increased” and the “numbers of subretinal IBA1+ MPs” value is “did not alter”.

For the compound “IGF-1: recombinant IGF-1 (Biotechne), insulin-like growth factor”, in experiment [2], the “number of PNA+CAR+ cones (cone survival)” value was “no effect” and the “numbers of subretinal IBA1+ MPs” value is “no effect”. Turning to `CN(C)C(=N)N=C(N)N` [metformin, reference compound], in experiment [2], the “number of PNA+CAR+ cones (cone survival)” value is recorded as “increased” and the “numbers of subretinal IBA1+ MPs” value was “significantly decreased”. Turning to `CN(CCOc1ccc(CC2SC(=O)NC2=O)cc1)c1ccccn1` (stereo not drawn) [rosiglitazone, reference compound], in experiment [2] (day 7 of RD, daily intraperitoneal 10 mg/kg from 3 days before and throughout RD, versus vehicle (DMSO 5%)), the “number of infiltration of subretinal IBA-1+ MPs” value is given as “no effect”. On to `O=P(O)(O)C(O)c1ccc2ccccc2c1` (stereo not drawn) [HNMPA, Hydroxy-2-naphthalenylmethylphosphonic acid, reference compound], for which the “PNA+CAR+ cones after addition of insulin receptor inhibitor” value in experiment [1] (high glucose DMEM with human insulin, HNMPA 1 mM, versus vehicle (DMSO)) is on record as “severe loss”.
